System: FVIII deficient plasma
Test: aPTT based one stage clotting assay in FVIII deficient plasma
Format: biochemical, human
Procedure, shortened: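 Test samples preincubated 4 min with FVIII-deficient plasma and aPTT reagent (DAPTTIN or Pathromtin SL), optionally with 50 ng activated FIX; clotting started with 25 mM CaCl2. Read-out is clotting time from start to clot formation, set against FVIII, buffer or scrambled-peptide controls.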

RRREGGGYYVNWYFDRRR [A1/3]
reduction in the clotting time (Pathromtin SL, in the absence of FIXa): no reduction of the clotting time was detectable
reduction in the clotting time (Pathromtin SL, in the presence of FIXa): dose dependent reduction in the clotting time
average clotting time (Table 3A Exp. 1, DAPTTIN, 2.5 μM, 2.2 nM FIXa): 91 s
clotting time (Table 3A Exp. 1, DAPTTIN, 2.5 μM, 2.2 nM FIXa, duplicate 1): 91.1 s
clotting time (Table 3A Exp. 1, DAPTTIN, 2.5 μM, 2.2 nM FIXa, duplicate 2): 91 s
average clotting time (Table 3A Exp. 1, DAPTTIN, 2.5 μM, w/o FIXa): 105 s
clotting time (Table 3A Exp. 1, DAPTTIN, 2.5 μM, w/o FIXa, duplicate 1): 105.2 s
clotting time (Table 3A Exp. 1, DAPTTIN, 2.5 μM, w/o FIXa, duplicate 2): 104.8 s
average clotting time (Table 3A Exp. 1, DAPTTIN, 7.5 μM, 2.2 nM FIXa): 73 s
clotting time (Table 3A Exp. 1, DAPTTIN, 7.5 μM, 2.2 nM FIXa, duplicate 1): 73.1 s
clotting time (Table 3A Exp. 1, DAPTTIN, 7.5 μM, 2.2 nM FIXa, duplicate 2): 72.7 s
average clotting time (Table 3A Exp. 1, DAPTTIN, 7.5 μM, w/o FIXa): 98 s
clotting time (Table 3A Exp. 1, DAPTTIN, 7.5 μM, w/o FIXa, duplicate 1): 97.8 s
clotting time (Table 3A Exp. 1, DAPTTIN, 7.5 μM, w/o FIXa, duplicate 2): 97.9 s
average clotting time (Table 3A Exp. 1, DAPTTIN, 12.5 μM, 2.2 nM FIXa): 60 s
clotting time (Table 3A Exp. 1, DAPTTIN, 12.5 μM, 2.2 nM FIXa, duplicate 1): 60.2 s
clotting time (Table 3A Exp. 1, DAPTTIN, 12.5 μM, 2.2 nM FIXa, duplicate 2): 58.9 s
average clotting time (Table 3A Exp. 1, DAPTTIN, 12.5 μM, w/o FIXa): 80 s
clotting time (Table 3A Exp. 1, DAPTTIN, 12.5 μM, w/o FIXa, duplicate 1): 80.2 s
clotting time (Table 3A Exp. 1, DAPTTIN, 12.5 μM, w/o FIXa, duplicate 2): 80.6 s
average clotting time (Table 3A Exp. 1, DAPTTIN, 15 μM, 2.2 nM FIXa): 60 s
clotting time (Table 3A Exp. 1, DAPTTIN, 15 μM, 2.2 nM FIXa, duplicate 1): 59.3 s
clotting time (Table 3A Exp. 1, DAPTTIN, 15 μM, 2.2 nM FIXa, duplicate 2): 59.9 s
average clotting time (Table 3A Exp. 1, DAPTTIN, 15 μM, w/o FIXa): 78 s
clotting time (Table 3A Exp. 1, DAPTTIN, 15 μM, w/o FIXa, duplicate 1): 78.2 s
clotting time (Table 3A Exp. 1, DAPTTIN, 15 μM, w/o FIXa, duplicate 2): 77.1 s
average clotting time (Table 3A Exp. 2, DAPTTIN, 1.25 μM, 2.2 nM FIXa): 91 s
clotting time (Table 3A Exp. 2, DAPTTIN, 1.25 μM, 2.2 nM FIXa, duplicate 1): 90.7 s
clotting time (Table 3A Exp. 2, DAPTTIN, 1.25 μM, 2.2 nM FIXa, duplicate 2): 90.8 s
average clotting time (Table 3A Exp. 2, DAPTTIN, 1.25 μM, w/o FIXa): 109 s
clotting time (Table 3A Exp. 2, DAPTTIN, 1.25 μM, w/o FIXa, duplicate 1): 108.7 s
clotting time (Table 3A Exp. 2, DAPTTIN, 1.25 μM, w/o FIXa, duplicate 2): 109.3 s
average clotting time (Table 3A Exp. 2, DAPTTIN, 2.5 μM, 2.2 nM FIXa): 88 s
clotting time (Table 3A Exp. 2, DAPTTIN, 2.5 μM, 2.2 nM FIXa, duplicate 1): 88 s
clotting time (Table 3A Exp. 2, DAPTTIN, 2.5 μM, 2.2 nM FIXa, duplicate 2): 88.8 s
average clotting time (Table 3A Exp. 2, DAPTTIN, 2.5 μM, w/o FIXa): 110 s
clotting time (Table 3A Exp. 2, DAPTTIN, 2.5 μM, w/o FIXa, duplicate 1): 110.1 s
clotting time (Table 3A Exp. 2, DAPTTIN, 2.5 μM, w/o FIXa, duplicate 2): 108.9 s
average clotting time (Table 3A Exp. 2, DAPTTIN, 5 μM, 2.2 nM FIXa): 77 s
clotting time (Table 3A Exp. 2, DAPTTIN, 5 μM, 2.2 nM FIXa, duplicate 1): 77 s
clotting time (Table 3A Exp. 2, DAPTTIN, 5 μM, 2.2 nM FIXa, duplicate 2): 76 s
average clotting time (Table 3A Exp. 2, DAPTTIN, 5 μM, w/o FIXa): 104 s
clotting time (Table 3A Exp. 2, DAPTTIN, 5 μM, w/o FIXa, duplicate 1): 103.4 s
clotting time (Table 3A Exp. 2, DAPTTIN, 5 μM, w/o FIXa, duplicate 2): 104.8 s
average clotting time (Table 3A Exp. 2, DAPTTIN, 7.5 μM, 2.2 nM FIXa): 73 s
clotting time (Table 3A Exp. 2, DAPTTIN, 7.5 μM, 2.2 nM FIXa, duplicate 1): 71.6 s
clotting time (Table 3A Exp. 2, DAPTTIN, 7.5 μM, 2.2 nM FIXa, duplicate 2): 73.9 s
average clotting time (Table 3A Exp. 2, DAPTTIN, 7.5 μM, w/o FIXa): 100 s
clotting time (Table 3A Exp. 2, DAPTTIN, 7.5 μM, w/o FIXa, duplicate 1): 100.1 s
clotting time (Table 3A Exp. 2, DAPTTIN, 7.5 μM, w/o FIXa, duplicate 2): 100.5 s
average clotting time (Table 3A Exp. 2, DAPTTIN, 10 μM, 2.2 nM FIXa): 63 s
clotting time (Table 3A Exp. 2, DAPTTIN, 10 μM, 2.2 nM FIXa, duplicate 1): 63.1 s
clotting time (Table 3A Exp. 2, DAPTTIN, 10 μM, 2.2 nM FIXa, duplicate 2): 62.5 s
average clotting time (Table 3A Exp. 2, DAPTTIN, 10 μM, w/o FIXa): 79 s
clotting time (Table 3A Exp. 2, DAPTTIN, 10 μM, w/o FIXa, duplicate 1): 79.1 s
clotting time (Table 3A Exp. 2, DAPTTIN, 10 μM, w/o FIXa, duplicate 2): 78.5 s
average clotting time (Table 3A Exp. 2, DAPTTIN, 12.5 μM, 2.2 nM FIXa): 57 s
clotting time (Table 3A Exp. 2, DAPTTIN, 12.5 μM, 2.2 nM FIXa, duplicate 1): 56.7 s
clotting time (Table 3A Exp. 2, DAPTTIN, 12.5 μM, 2.2 nM FIXa, duplicate 2): 56.7 s
average clotting time (Table 3A Exp. 2, DAPTTIN, 12.5 μM, w/o FIXa): 85 s
clotting time (Table 3A Exp. 2, DAPTTIN, 12.5 μM, w/o FIXa, duplicate 1): 83.6 s
clotting time (Table 3A Exp. 2, DAPTTIN, 12.5 μM, w/o FIXa, duplicate 2): 85.5 s
average clotting time (Table 3B, Pathromtin SL, 1 μM, 2.2 nM FIXa): 105 s
clotting time (Table 3B, Pathromtin SL, 1 μM, 2.2 nM FIXa, duplicate 1): 103.7 s
clotting time (Table 3B, Pathromtin SL, 1 μM, 2.2 nM FIXa, duplicate 2): 105.9 s
average clotting time (Table 3B, Pathromtin SL, 1 μM, w/o FIXa): 139 s
clotting time (Table 3B, Pathromtin SL, 1 μM, w/o FIXa, duplicate 1): 138.3 s
clotting time (Table 3B, Pathromtin SL, 1 μM, w/o FIXa, duplicate 2): 138.8 s
average clotting time (Table 3B, Pathromtin SL, 5 μM, 2.2 nM FIXa): 88 s
clotting time (Table 3B, Pathromtin SL, 5 μM, 2.2 nM FIXa, duplicate 1): 86.6 s
clotting time (Table 3B, Pathromtin SL, 5 μM, 2.2 nM FIXa, duplicate 2): 90.2 s
average clotting time (Table 3B, Pathromtin SL, 5 μM, w/o FIXa): 154 s
clotting time (Table 3B, Pathromtin SL, 5 μM, w/o FIXa, duplicate 1): 152.6 s
clotting time (Table 3B, Pathromtin SL, 5 μM, w/o FIXa, duplicate 2): 155.6 s
average clotting time (Table 3B, Pathromtin SL, 10 μM, 2.2 nM FIXa): 78 s
clotting time (Table 3B, Pathromtin SL, 10 μM, 2.2 nM FIXa, duplicate 1): 76.2 s
clotting time (Table 3B, Pathromtin SL, 10 μM, 2.2 nM FIXa, duplicate 2): 79.8 s
average clotting time (Table 3B, Pathromtin SL, 10 μM, w/o FIXa): 135 s
clotting time (Table 3B, Pathromtin SL, 10 μM, w/o FIXa, duplicate 1): 135.7 s
clotting time (Table 3B, Pathromtin SL, 10 μM, w/o FIXa, duplicate 2): 134.6 s
average clotting time (Table 3B, Pathromtin SL, 15 μM, 2.2 nM FIXa): 75 s
clotting time (Table 3B, Pathromtin SL, 15 μM, 2.2 nM FIXa, duplicate 1): 75.4 s
clotting time (Table 3B, Pathromtin SL, 15 μM, 2.2 nM FIXa, duplicate 2): 75.2 s
average clotting time (Table 3B, Pathromtin SL, 15 μM, w/o FIXa): 151 s
clotting time (Table 3B, Pathromtin SL, 15 μM, w/o FIXa, duplicate 1): 152.8 s
clotting time (Table 3B, Pathromtin SL, 15 μM, w/o FIXa, duplicate 2): 149.3 s
average clotting time (Table 4, 1.25 μM, 2.2 nM FIXa): 95 s
clotting time (Table 4, 1.25 μM, 2.2 nM FIXa, duplicate 1): 94.4 s
clotting time (Table 4, 1.25 μM, 2.2 nM FIXa, duplicate 2): 95 s
average clotting time (Table 4, 1.25 μM, w/o FIXa): 107 s
clotting time (Table 4, 1.25 μM, w/o FIXa, duplicate 1): 106.7 s
clotting time (Table 4, 1.25 μM, w/o FIXa, duplicate 2): 107 s
average clotting time (Table 4, 2.5 μM, 2.2 nM FIXa): 93 s
clotting time (Table 4, 2.5 μM, 2.2 nM FIXa, duplicate 1): 93.6 s
clotting time (Table 4, 2.5 μM, 2.2 nM FIXa, duplicate 2): 93.3 s
average clotting time (Table 4, 2.5 μM, w/o FIXa): 108 s
clotting time (Table 4, 2.5 μM, w/o FIXa, duplicate 1): 107.9 s
clotting time (Table 4, 2.5 μM, w/o FIXa, duplicate 2): 107.6 s
average clotting time (Table 4, 5 μM, 2.2 nM FIXa): 89 s
clotting time (Table 4, 5 μM, 2.2 nM FIXa, duplicate 1): 89.7 s
clotting time (Table 4, 5 μM, 2.2 nM FIXa, duplicate 2): 88.3 s
average clotting time (Table 4, 5 μM, w/o FIXa): 108 s
clotting time (Table 4, 5 μM, w/o FIXa, duplicate 1): 108.4 s
clotting time (Table 4, 5 μM, w/o FIXa, duplicate 2): 107.7 s
average clotting time (Table 4, 7.5 μM, 2.2 nM FIXa): 81 s
clotting time (Table 4, 7.5 μM, 2.2 nM FIXa, duplicate 1): 80.7 s
clotting time (Table 4, 7.5 μM, 2.2 nM FIXa, duplicate 2): 80.5 s
average clotting time (Table 4, 7.5 μM, w/o FIXa): 105 s
clotting time (Table 4, 7.5 μM, w/o FIXa, duplicate 1): 105.2 s
clotting time (Table 4, 7.5 μM, w/o FIXa, duplicate 2): 105.2 s
average clotting time (Table 4, 10 μM, 2.2 nM FIXa): 73 s
clotting time (Table 4, 10 μM, 2.2 nM FIXa, duplicate 1): 72 s
clotting time (Table 4, 10 μM, 2.2 nM FIXa, duplicate 2): 73.2 s
average clotting time (Table 4, 10 μM, w/o FIXa): 104 s
clotting time (Table 4, 10 μM, w/o FIXa, duplicate 1): 104.4 s
clotting time (Table 4, 10 μM, w/o FIXa, duplicate 2): 104.5 s
average clotting time (Table 4, 12.5 μM, 2.2 nM FIXa): 67 s
clotting time (Table 4, 12.5 μM, 2.2 nM FIXa, duplicate 1): 65 s
clotting time (Table 4, 12.5 μM, 2.2 nM FIXa, duplicate 2): 68 s
average clotting time (Table 4, 12.5 μM, w/o FIXa): 100 s
clotting time (Table 4, 12.5 μM, w/o FIXa, duplicate 1): 99.4 s
clotting time (Table 4, 12.5 μM, w/o FIXa, duplicate 2): 100.5 s
average clotting time (Table 4, 15 μM, 2.2 nM FIXa): 56 s
clotting time (Table 4, 15 μM, 2.2 nM FIXa, duplicate 1): 56.1 s
clotting time (Table 4, 15 μM, 2.2 nM FIXa, duplicate 2): 55.5 s
average clotting time (Table 4, 15 μM, w/o FIXa): 78 s
clotting time (Table 4, 15 μM, w/o FIXa, duplicate 1): 77.8 s
clotting time (Table 4, 15 μM, w/o FIXa, duplicate 2): 78 s

From patent publication US7279161B2, “Factor IX/factor IXa activating antibodies and antibody derivatives” (Baxter Aktiengesellschaft, priority 1999, dated 2007)
